From patent US8394952B2 (Vertex Pharmaceuticals Incorporated, priority 2006, dated 2013)

The compounds below were run against Plk1 (Homo sapiens, UniProt P53350) (assay: biochemical).
Sequence of Plk1 (P53350 20-338): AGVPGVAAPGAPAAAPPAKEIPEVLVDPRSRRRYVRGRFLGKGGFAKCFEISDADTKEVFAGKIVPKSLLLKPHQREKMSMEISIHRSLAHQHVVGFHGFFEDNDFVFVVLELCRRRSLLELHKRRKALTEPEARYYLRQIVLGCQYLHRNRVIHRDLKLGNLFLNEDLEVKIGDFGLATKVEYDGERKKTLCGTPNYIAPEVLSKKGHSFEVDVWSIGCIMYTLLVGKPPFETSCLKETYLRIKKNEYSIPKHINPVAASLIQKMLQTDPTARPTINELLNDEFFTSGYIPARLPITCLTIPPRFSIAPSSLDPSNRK
For `COc1cc(C(=O)NC2CC2)ccc1Nc1ncc2c(n1)N(C1CCCC1)CC1(CC1)C(=O)N2C` [Compound I-178, 4-(9′-cyclopentyl-5′-methyl-6′-oxo-5′,6′,8′,9′-tetrahydrospiro[cyclopropane-1,7′-pyrimido[4,5-b][1,4]diazepine]-2′-ylamino)-N-cyclopropyl-3-methoxybenzamide], the Ki was less than 10 nM.
In the case of `COc1cc(C(=O)NCC2CCCO2)ccc1Nc1ncc2c(n1)N(C1CCCC1)CC(C)(C)C(=O)N2C` (stereo not drawn) [Compound I-194, 4-(9-cyclopentyl-5,7,7-trimethyl-6-oxo-6,7,8,9-tetrahydro-5H-pyrimido[4,5-b][1,4]diazepin-2-ylamino)-3-methoxy-N-((tetrahydrofuran-2-yl)methyl)benzamide], the Ki is reported as less than 10 nM.
`COCCNC(=O)c1ccc(Nc2ncc3c(n2)N(C2CCCC2)CC(C)(C)C(=O)N3C)c(OC)c1` [Compound I-197, 4-(9-cyclopentyl-5,7,7-trimethyl-6-oxo-6,7,8,9-tetrahydro-5H-pyrimido[4,5-b][1,4]diazepin-2-ylamino)-3-methoxy-N-(2-methoxyethyl)benzamide] was tested, and the Ki was less than 10 nM.
With `COc1cc(C(=O)NC2CCN(CC(C)C)CC2)ccc1Nc1ncc2c(n1)N(C1CCCC1)CC(C)(C)C(=O)N2C` [Compound I-70] the Ki was less than 10 nM.
`CCNC(=O)c1ccc(Nc2ncc3c(n2)N(C2CCCC2)CC(C)(C)C(=O)N3C)c(OC)c1` [Compound I-219, 4-(9-cyclopentyl-5,7,7-trimethyl-6-oxo-6,7,8,9-tetrahydro-5H-pyrimido[4,5-b][1,4]diazepin-2-ylamino)-N-ethyl-3-methoxybenzamide] gave a Ki of less than 10 nM.
Compound `COc1cc(-c2ncc[nH]2)ccc1Nc1ncc2c(n1)N(C1CCCC1)CC(C)(C)C(=O)N2C` [Compound I-250, 2-(4-(1H-imidazole-2-yl)-2-methoxyphenylamino)-9-cyclopentyl-5,7,7-trimethyl-8,9-dihydro-5H-pyrimido[4,5-b][1,4]diazepin-6(7H)-one] has a Ki of less than 10 nM.
`COc1cc(C(=O)NC2CCOCC2)ccc1Nc1ncc2c(n1)N(C1CCCC1)CC(C)(C)C(=O)N2C` [Compound I-134, 4-(9-cyclopentyl-6,7,8,9-tetrahydro-5,7,7-trimethyl-6-oxo-5H-pyrimido[4,5-b][1,4]diazepin-2-ylamino)-N-(tetrahydro-2H-pyran-4-yl)-3-methoxybenzamide] gave a Ki of less than 10 nM.
`CN1C(=O)C(C)(C)CN(C2CCCC2)c2nc(Nc3cccc(C(=O)NC4CC4)c3)ncc21` [Compound I-159, 3-(9-cyclopentyl-6,7,8,9-tetrahydro-5,7,7-trimethyl-6-oxo-5H-pyrimido[4,5-b][1,4]diazepin-2-ylamino)-N-cyclopropylbenzamide] was tested, and the Ki was 10 to 100 nM.
`COc1cc(C(=O)NC2CCN(C(=O)OC(C)(C)C)CC2)ccc1Nc1ncc2c(n1)N(C1CCCC1)CCC(=O)N2C` [Compound I-5, 4-(9-cyclopentyl-6,7,8,9-tetrahydro-5-methyl-6-oxo-5H-pyrimido[4,5-b][1,4]diazepin-2-ylamino)-3-methoxy-N-[1-(tert-butoxycarbonyl)piperidin-4-yl]benzamide] showed a Ki of less than 10 nM.
In the case of `COc1cc(C(=O)N[C@@H](C)CO)ccc1Nc1ncc2c(n1)N(C1CCCC1)CC(C)(C)C(=O)N2C` [Compound I-265], the Ki is reported as less than 10 nM.
Work on `COc1cc(C(=O)NC2CCN(C)CC2)ccc1Nc1ncc2c(n1)N(C1CCCC1)C[C@H](C)C(=O)N2C` [Compound I-21, 4-((S)-9-cyclopentyl-6,7,8,9-tetrahydro-5,7-dimethyl-6-oxo-5H-pyrimido[4,5-b][1,4]diazepin-2-ylamino)-3-methoxy-N-(1-methylpiperidin-4-yl)benzamide] yielded a Ki of less than 10 nM.
Compound `COc1cc(C(=O)NC2CCCC2)ccc1Nc1ncc2c(n1)N(C1CCCC1)CC(C)(C)C(=O)N2C` [Compound I-129, 4-(9-cyclopentyl-6,7,8,9-tetrahydro-5,7,7-trimethyl-6-oxo-5H-pyrimido[4,5-b][1,4]diazepin-2-ylamino)-N-cyclopentyl-3-methoxybenzamide] has a Ki of less than 10 nM.
Work on `COc1cc(C(=O)N[C@@H]2CCC[C@H]2O)ccc1Nc1ncc2c(n1)N(C1CCCC1)CC(C)(C)C(=O)N2C` [Compound I-244, 4-(9-cyclopentyl-5,7,7-trimethyl-6-oxo-6,7,8,9-tetrahydro-5H-pyrimido[4,5-b][1,4]diazepin-2-ylamino)-N-((1R,2R)-2-hydroxycyclopentyl)-3-methoxybenzamide] yielded a Ki of less than 10 nM.
With `COc1cc(C(=O)Nc2cnccn2)ccc1Nc1ncc2c(n1)N(C1CCCC1)CC(C)(C)C(=O)N2C` [Compound I-224, 4-(9-cyclopentyl-5,7,7-trimethyl-6-oxo-6,7,8,9-tetrahydro-5H-pyrimido[4,5-b][1,4]diazepin-2-ylamino)-3-methoxy-N-(pyrazin-2-yl)benzamide] the Ki was less than 10 nM.
`COc1cc(C(=O)NN2CCCC2)ccc1Nc1ncc2c(n1)N(C1CCCC1)CC1(CC1)C(=O)N2C` [Compound I-253, 4-(9′-cyclopentyl-5′-methyl-6′-oxo-5′,6′,8′,9′-tetrahydrospiro[cyclopropane-1,7′-pyrimido[4,5-b][1,4]diazepine]-2′-ylamino)-3-methoxy-N-(pyrrolidin-1-yl)benzamide] gave a Ki of less than 10 nM.
Work on `COc1cc(C(=O)N2CC(F)(C3CC3)C2)ccc1Nc1ncc2c(n1)N(C1CCCC1)CC(C)(C)C(=O)N2C` [Compound I-208, 9-cyclopentyl-2-(4-(3-cyclopropyl-3-fluoroazetidine-1-carbonyl)-2-methoxyphenylamino)-5,7,7-trimethyl-8,9-dihydro-5H-pyrimido[4,5-b][1,4]diazepin-6(7)-one] yielded a Ki of less than 10 nM.
With `COc1cc(C(=O)N[C@H]2CC[C@H](O)CC2)ccc1Nc1ncc2c(n1)N(C1CCCC1)CC(C)(C)C(=O)N2C` [Compound I-204, 4-(9-cyclopentyl-5,7,7-trimethyl-6-oxo-6,7,8,9-tetrahydro-5H-pyrimido[4,5-b][1,4]diazepin-2-ylamino)-N-((1R,4R)-4-hydroxycyclohexyl)-3-methoxybenzamide] the Ki was less than 10 nM.
With `CN1C(=O)C(C)(C)CN(C2CCCC2)c2nc(Nc3cccc(NC(=O)N4CCCCC4)c3)ncc21` [Compound I-164, N-(3-(9-cyclopentyl-6,7,8,9-tetrahydro-5,7,7-trimethyl-6-oxo-5H-pyrimido[4,5-b][1,4]diazepin-2-ylamino)phenyl)piperidine-1-carboxamide] the Ki was 10 to 100 nM.
In the case of `COc1cc(C(=O)NCCc2ccccc2)ccc1Nc1ncc2c(n1)N(C1CCCC1)CC(C)(C)C(=O)N2C` [Compound I-203, 4-(9-cyclopentyl-5,7,7-trimethyl-6-oxo-6,7,8,9-tetrahydro-5H-pyrimido[4,5-b][1,4]diazepin-2-ylamino)-3-methoxy-N-phenethylbenzamide], the Ki is reported as less than 10 nM.
Compound `COc1cc(C(=O)NC2CC(F)(F)C2)ccc1Nc1ncc2c(n1)N(C1CCCC1)CC(C)(C)C(=O)N2C` [Compound I-166, 4-(9-cyclopentyl-6,7,8,9-tetrahydro-5,7,7-trimethyl-6-oxo-5H-pyrimido[4,5-b][1,4]diazepin-2-ylamino)-N-(3,3-difluorocyclobutyl)-3-methoxybenzamide] has a Ki of less than 10 nM.
`COc1cc(C(=O)N[C@H]2CC[C@@H](F)CC2)ccc1Nc1ncc2c(n1)N(C1CCCC1)CC(C)(C)C(=O)N2C` [Compound I-267, 4-(9-cyclopentyl-5,7,7-trimethyl-6-oxo-6,7,8,9-tetrahydro-5H-pyrimido[4,5-b][1,4]diazepin-2-ylamino)-N-((1S,4S)-4-fluorocylohexyl)-3-methoxybenzamide] gave a Ki of less than 10 nM.
For `COc1cc(C2=NCC(C)(C)N2)ccc1Nc1ncc2c(n1)N(C1CCCC1)CC(C)(C)C(=O)N2C` [Compound I-257, 9-cyclopentyl-2-(4-(5,5-dimethyl-4,5-dihydro-1H-imidazol-2-yl)-2-methoxyphenylamino)-5,7,7-trimethyl-8,9-dihydro-5H-pyrimido[4,5-b][1,4]diazepin-6(7H)-one], the Ki was less than 10 nM.
Compound `COc1cc(C(=O)N2CCNCC2)ccc1Nc1ncc2c(n1)N(C1CCCC1)CCC(=O)N2C` [Compound I-8, 4-(9-cyclopentyl-6,7,8,9-tetrahydro-5-methyl-6-oxo-5H-pyrimido[4,5-b][1,4]diazepin-2-ylamino)-3-methoxyphenyl(piperazin-1-yl)methanone] has a Ki of 10 to 100 nM.
In the case of `CN1C(=O)C(C)(C)CN(C2CCCC2)c2nc(Nc3cccc(NC(=O)CC(F)(F)F)c3)ncc21` [Compound I-145], the Ki is reported as 10 to 100 nM.
With `COc1cc(C(=O)NC2CCN(CC3CC3)CC2)ccc1Nc1ncc2c(n1)N(C1CCCC1)CC(C)(C)C(=O)N2C` [Compound I-59, 4-(9-cyclopentyl-6,7,8,9-tetrahydro-5,7,7-trimethyl-6-oxo-5H-pyrimido[4,5-b][1,4]diazepin-2-ylamino)-N-(1-(cyclopropylmethyl)piperidin-4-yl)-3-methoxybenzamide] the Ki was less than 10 nM.
`COc1cc(C(=O)N[C@H]2CCOC2)ccc1Nc1ncc2c(n1)N(C1CCCC1)CC1(CC1)C(=O)N2C` [Compound I-179, (S)-4-(9′-cyclopentyl-5′-methyl-6′-oxo-5′,6′,8′,9′-tetrahydrospiro[cyclopropane-1,7′-pyrimido[4,5-b][1,4]diazepine]-2′-ylamino)-3-methoxy-N-(tetrahydrofuran-3-yl)benzamide] showed a Ki of less than 10 nM.
`COc1cc(C(=O)NC2CC(C)(C)N(C)C(C)(C)C2)ccc1Nc1ncc2c(n1)N(C1CCCC1)CC(C)(C)C(=O)N2C` [Compound I-68, 4-(9-cyclopentyl-6,7,8,9-tetrahydro-5,7,7-trimethyl-6-oxo-5H-pyrimido[4,5-b][1,4]diazepin-2-ylamino)-3-methoxy-N-(1,2,2,6,6-pentamethylpiperidin-4-yl)-benzamide] showed a Ki of less than 10 nM.
With `COc1cc(C(=O)Nc2ccncc2C(F)(F)F)ccc1Nc1ncc2c(n1)N(C1CCCC1)CC(C)(C)C(=O)N2C` [Compound I-234] the Ki was less than 10 nM.
Compound `CNC(=O)c1ccc(Nc2ncc3c(n2)N(C2CC(F)(F)C2)CC(C)(C)C(=O)N3C)c(OC)c1` [Compound I-170, 4-(9-(3,3-difluorocyclobutyl)-6,7,8,9-tetrahydro-5,7,7-trimethyl-6-oxo-5H-pyrimido[4,5-b][1,4]diazepin-2-ylamino)-3-methoxy-N-methylbenzamide] has a Ki of less than 10 nM.
`CC(=O)Nc1c(F)ccc(Nc2ncc3c(n2)N(C2CCCC2)CC(C)(C)C(=O)N3C)c1F` [Compound I-165, N-(3-(9-cyclopentyl-6,7,8,9-tetrahydro-5,7,7-trimethyl-6-oxo-5H-pyrimido[4,5-b][1,4]diazepin-2-ylamino)-2,6-difluorophenyl)acetamide] showed a Ki of 10 to 100 nM.
